One compound from patent US8022235B2, “Compositions of phospholipid ether boronic acids and esters and methods for their synthesis and use” (Cellectar, Inc., priority 2007, dated 2011) can be followed below.

In one data set the test system is SCC1 and 6. The data set is described as follows: Imaging and tissue distribution, tumor model; tumor regression. Type of data set: in vivo. The source says:
(§1) During the course of mouse tumor uptake and retention studies with “imaging” doses (15-20 μCi/20 g mouse) of ^125I-labeled NM404, several apparent therapeutic responses have been observed (unpublished results). […] Some of these animals also lost all hair above larger mammary tumors at around 8 days after injection. Moreover, these mice also get intestinal tumors and usually suffer from intestinal bleeding resulting in severe anemia, which renders their feet white. […] Another compelling example of tumor regression is illustrated in FIG. 13. Two litter mates each received SCC1 and SCC6 xenografts in their left and right flanks, respectively. One mouse received a single injection of ^125I-NM404 (20 μCi). […] These coincidental findings were reconfirmed in two separate age-matched groups each involving more than 6 mice.

Data set [1] concerns A549 human non-small cell lung cancer xenografts. The data set can be described thus: Single-dose 125I-NM404 treatment, tumor volume, A549 xenografts. Type of data set: in vivo, SCID mice. An excerpt: FIG. 3 illustrates antitumor effect of single-dose treatment with ^125I-125-NM404 at doses of 50 (∘), 150 (□), 250 (⋄) and 500 (∘) μCi in SCID mice bearing A549 human non-small cell lung cancer xenografts. In FIG. 3, control animals show rapidly growing tumors over the 10-week assessment period. […] Tumor volumes are stable and some tumors appear “collapsed” (the tumor surface has collapsed). Additionally, hair above the tumors fell off confirming substantial accumulation of radioactivity in these tumors.
FIG. 4 is an image showing one of the tumor-bearing animals treated with 250 μCi of ^125I-NM404 at 4 weeks following injection. The hair above the tumor has fallen off, apparently due to the significant accumulation of radioactivity in the tumor. […] The measurement method for determining outer tumor dimensions may have underestimated tumor volume response following dosing with ^125I-NM404;
(§2) The inventors have previously shown that ^125I-labeled PLE analogs such as NM404 are effective in targeting tumor therapies to tumor cells following single injection and fractionated dosing. For assessment of efficacy of ^125I-NM404 treatment, assessments of tumor volume were made until 10 weeks post-injection or until no animal in the control group was alive, whatever came first. Summarizing the results, control animals show rapidly growing tumors over the 10-week assessment period. See, FIGS. 2 and 3. […] Tumor volumes are stable and the same tumors appear “collapsed” (the tumor surface has caved in). Additionally, the hair above the tumors fell off confirming substantial accumulation of radioactivity in these tumors, FIG. 4. […] (See also, for example, U.S. patent application Ser. No. 11/671,403 hereby incorporated in its entirety for all purposes.)

A further data set deals with Adrenal RL-251. The data set can be described thus: Imaging and tissue distribution, tumor model. Conditions: days 1 through 14. Type of data set: in vivo, SCID Mouse.
The subject of another data set is Mammary SCC and ACC. The data set can be described thus: Imaging and tissue distribution, tumor model; therapeutic responses at imaging doses. Conditions: single intravenous injection, ^125I-labeled, imaging dose 15-20 μCi/20 g mouse. The class given is in vivo, Apc^Min/+mouse.
Excerpt: as §1

A further data set concerns animal tumor models. The data set can be described thus: Imaging and biodistribution across animal tumor models (general statements). An excerpt:
See, for example, U.S. patent application Ser. Nos. 10/906,687, 11/177,740, 11/316,620 and 11/382,645. Due to deficiencies in metabolic phospholipase enzymes in the membranes of malignant tumor cells, the prevailing hypothesis for this specificity is that phospholipid ether analogs become trapped exclusively in tumor cell membranes because of their inability to become metabolized and eliminated by the cancerous cell. Thus, the differential clearance rates of phospholipid ethers from normal cells versus neoplastic tumor cells are responsible for this specificity.
The reason for the retention of PLE and analogs in cancer cells remains unknown. Without being held to any particular theory, however, the prevailing hypothesis, is that radioiodinated PLE and APC analogs become trapped in tumor cell membranes because of their inability to be metabolized and eliminated. On the other hand, such lipid molecules are metabolized and cleared by normal tissues, including the liver.
These PLE analogs are specifically designed to incorporate aromatic radioiodine in order to render the molecule stable towards in vivo deiodination.

In data set [2] the test system is PC3 human prostate cancer xenografts. The data set can be described thus: Single-dose 125I-NM404 treatment, tumor volume, PC3 xenografts. Type of data set: in vivo, SCID mice. Conditions: single dose 250 μCi and 500 μCi, n=6 per group. The method, then: Tumor volumes were calculated using formula (width)^2×(length)/2 and expressed as mean±SEM, n=6 for each group. ⋄ Cold NM404, control;
as §2

Regarding `C[N+](C)(C)CCOP(=O)([O-])OCCCCCCCCCCCCCCCCCCc1ccc([125I])cc1` [^125I-NM404], the tumor regression entry is on record as “significantly reduced” in the data set on SCC1 and 6 (by day 41 after injection (FIG. 12)); “regressed significantly” in the data set on SCC1 and 6 (single injection 20 μCi, SCC1 and SCC6 flank xenografts, untreated litter mate died 21 days later). In addition, the “health of treated animal” value with SCC1 and 6 (single injection 20 μCi) is reported as “quite healthy 80 days after injection”. In addition, the “tumor volume vs control” value in data set [1] (50 μCi dose group) is “did not show any difference when compared with control animals”; in data set [1] (150, 250 and 500 μCi dose groups), “substantial and prolonged treatment effect”; in data set [1] (single dose 50 and 150 μCi (FIG. 3 legend)), “did not show any difference when compared to control animals”; in data set [1] (single dose 250 and 500 μCi (FIG. 3 legend)), “substantial and prolonged treatment effect”. Further, the “effect on the tumor (appearance)” value in data set [1] (250 μCi, 4 weeks following injection (FIG. 4)) is listed as “causes central necrosis”. Besides, the “dose dependence of effect on tumor volume” value in data set [1] (single dose 50-500 μCi) was “dose-linear effect”. The “tissue distribution, blood, spleen and kidney” value in the data set with Adrenal RL-251 was “distribution in blood, spleen and kidney reduced”. The “tissue distribution, tumor” value in the data set with Adrenal RL-251 is “accumulation in the tumor increased”. The tumor growth result in the data set on Mammary SCC and ACC is reported as “tumor growth remains static”. Further, the “time over which tumors could be imaged” value in the data set on animal tumor models (mammary and prostate tumors in mice) was more than 60 days. Moreover, in the data set with animal tumor models (mice, post-injection), the “duration of tumor retention” value was 20 to 60 days. Moreover, the “change in tumor volume / primary tumor growth” value in data set [2] is reported as “significant effects in inhibiting the progression of primary tumor growth”.
